Assay results taken from patent US20110189094A1, “BIOLOGICAL METHOD FOR IN VIVO TRACKING OF MOLECULES AFFECTING CELLULAR MIGRATION” (UNIVERSIDAD DE CHILE, priority 2008, published 2011).

How the values were obtained:
CCR7 = assay: Expression of CCR7 in dendritic cells in maturation; format: cell-based
From the text: (§1) Dendritic cells, when entering the maturation process, start to express chemokine receptors (CCR7, CXCR4) that direct their migration towards the secondary lymphoid organs. We have recently discovered that Fenritinide {4-HPR), a molecule utilized in “clinical trials” against breast cancer and neuroblastoma, inhibits the expression of CCR7 and CXCR4 in dendritic cells in maturation {Villablanca, Allende and collaborators; manuscript in preparation). […] In this way, Fenritinide would produce a blocking of the mature dendritic cells in the periphery, preventing their migration and arrival at the secondary lymphoid organs, affecting in this way the development of an immune response to pathogens or towards the tumoral cells proper.

neuromasts = assay: DiAsp tinction of mature neuromasts of the posterior lateral line in zebra fish embryos; format: in vivo, zebra fish (Danio rerio)
Protocol: (§2) Zebra fish (Danio rerio) are used, kept in a 14/10-hour light/darkness cycle. Embryos are recovered after natural fish mating and they grow in Petri plates at 28° C. in E3 medium (5 mM NaCl, 0.17 mM KCl, 0.33 mM CaCl2, 0.33 mM MgSO4, and 0.1% Methylene Blue) until the reach the development stadium suitable for the test, which is determined according to Kimmel et al., (1995). The larval stadiums are designated in post fertilization hours (hpf) or post fertilization days (dpf).
(§3) In this way, we have evaluated our hypothesis of the Fenritinide effect on dendritic cells, taking our invention as the test model. Zebra fish embryos were incubated in accordance with the basic conditions described in Example 1, but in the presence of Fenritinide since the time when the posterior lateral line primordium starts to migrate (22 hours post fecundation (hpf) stadium), until the LLP system is mature (36 hpf stadium) and is easily visualized with the DiAsp tinction. […] We checked whether the absence of mature neuromasts is caused by migration blocking by means of in situ hybridization using the claudin-B (anti-claudinB antibody, detected with immunofluorescence) primordium marker.
(§4) Embryos in the 22 hpf stadium were incubated between 26 and 28° C., in the absence or presence of either PGD2 or 15-deoxy-PJE2, permitting the development of embryos up to the 36 hpf stadium, at which time we checked the primordium advance both in the treated embryos and in the (untreated) control embryos.

CD86 = assay: Expression of CD86 in dendritic cells; format: cell-based
From the text: as §1

lateral line primordium = assay: Lateral line primordium migration in CldnB::GFP transgenic zebra fish larvae (GFP fluorescence); format: in vivo, zebra fish (Danio rerio); conditions: 20 μM in medium, 22 hpf until 36 hpf
Protocol: as §2
In this first example, in each cup on a plate with 24 cups with 2 ml of E3 medium each, we placed from 3-10 transgenic embryos that express the GFP gene under the control of the CldnB promoter (CldnB::GFP; kindly donated by Dr. Darren Gilmour (EMBL, Heidelberg, Germany). The agents subjected to tests (N˜(4˜hydroxyphenyl)retinamide (Fenretinide, 4-HPR), retinaldehide 9-cis, retinaldehide all-trans and only with the control vehicle: DMSO) were added to the medium at a final concentration of 20 μM when the embryos reached the 22 hpf stadium and the fish were kept in the medium plus the agent until 36 hpf. The GFP mark in the migratory primordium was observed every 4-6 hours in order to monitor its progress. At 36 hpf, we fixed one half of the fish (5 from each cup) with 4% paraformaldehyde dissolved in PBS. We observe the fluorescence of GFP (indicating the primordium position) and evaluated whether it migrated properly or not (FIG. 1).

[1] = system: posterior lateral line primordium; assay: Primordium migration with claudin-B primordium marker in zebra fish embryos; format: in vivo, zebra fish (Danio rerio); conditions: Example 2, incubation 22 hpf until 36 hpf
Protocol: as §2, §3

CD83 = assay: Expression of CD83 in dendritic cells; format: cell-based
From the text: as §1

CXCR4 [2] = assay: Expression of CXCR4 in dendritic cells in maturation; format: cell-based
From the text: as §1

CD80 = assay: Expression of CD80 in dendritic cells; format: cell-based
From the text: as §1

human dendritic cells = conditions: literature, Nencioni et al. 2002; cited from earlier work
LLP primordium = LLP primordium advance in zebra fish embryos incubated with prostaglandins; format: in vivo, zebra fish (Danio rerio)
Protocol: as §2, §4

CXCR4 [3] = conditions: literature, Scandelia et al. 2002; cited from earlier work
dendritic cells = assay: Migration of dendritic cells; format: cell-based; conditions: negative control
From the text: as §1

[4] = Example 3, 10 μM, 22 hpf up to 36 hpf

In the case of `CC1=C(/C=C/C(C)=C/C=C/C(C)=C/C(=O)Nc2ccc(O)cc2)C(C)(C)CCC1` [4-HPR, N˜(4˜hydroxyphenyl)retinamide], the “expression of CCR7” value (CCR7) is reported as “inhibits”, the “DiAsp tinction of mature neuromasts” value (neuromasts; Example 2, incubation 22 hpf until 36 hpf) is reported as “negative” and the “inhibition of CD86” value (CD86) is reported as “does not inhibit”. The “migration of the lateral line primordium (GFP fluorescence)” value (“migration of the lateral line primordium” for short) (lateral line primordium) was “delay in the migration”, the “primordium migration (claudin-B primordium marker)” value [1] was “blocking of the migratory primordium at the beginning of its migration” and the “inhibition of CD83” value (CD83) was “does not inhibit”. The “expression of CXCR4” value (CXCR4 [2]) was “inhibits” and the “inhibition of CD80” value (CD80) was “does not inhibit”.

For `CC1=C(/C=C/C(C)=C\C=C\C(C)=C\C=O)C(C)(C)CCC1` [9cRA, 9-cis retinaldehyde], the “migration of the lateral line primordium” value (lateral line primordium) was “normal migration”.

In the case of `CCCCC[C@H](O)/C=C/[C@H]1C(=O)C[C@H](O)[C@@H]1C/C=C\CCCC(=O)O` [PGD2], the “migration through CXCR4 in human dendritic cells” value (human dendritic cells) is listed as “inhibit migration”, the “DiAsp tinction of neuromasts” value (neuromasts; [4]) is listed as “negative” and the LLP primordium migration (LLP primordium; [4]) is listed as “considerably slower”.

In the case of `CCCCC[C@H](O)/C=C/[C@H]1[C@H](O)CC(=O)[C@@H]1C/C=C\CCCC(=O)O` [PGE2], the “expression of CXCR4 in dendritic cells” value (CXCR4 [3]) is given as “increments”, the “DiAsp tinction of neuromasts” value (neuromasts; Example 3, 22 hpf up to 36 hpf, 26-28° C., concentration not given) is given as “dyed with DiAsp” and the LLP primordium migration (LLP primordium; Example 3, 22 hpf up to 36 hpf, concentration not given) is given as “migrated normally”.

For `CC1=C(/C=C/C(C)=C/C=C/C(C)=C/C(=O)O)C(C)(C)CCC1` [retinoic acid], the “inhibition of the migration of dendritic cells” value (dendritic cells) was “not capable of inhibiting” and the “expression of CXCR4” value (CXCR4 [2]) was “not capable of inhibiting”.

For retinaldehide all-trans [atRA], the “migration of the lateral line primordium” value (lateral line primordium) was “normal migration”.
